# Values quoted from earlier work in patent US9970152B2, “Method for functionalizing a solid material surface with self assembling or self aggregating cyclodextrins and products thereof” (Aalborg Universitet, priority 2010, dated 2018).
# Conditions: in water
compound,measurement,value
OC[C@H]1O[C@@H]2O[C@H]3[C@H](O)[C@@H](O)[C@@H](O[C@H]4[C@H](O)[C@@H](O)[C@@H](O[C@H]5[C@H](O)[C@@H](O)[C@@H](O[C@H]6[C@H](O)[C@@H](O)[C@@H](O[C@H]7[C@H](O)[C@@H](O)[C@@H](O[C@H]1[C@H](O)[C@H]2O)O[C@@H]7CO)O[C@@H]6CO)O[C@@H]5CO)O[C@@H]4CO)O[C@@H]3CO [α CD],Solubility,129.5 g/kg H2O
